Here are results for 14 molecules from ChEMBL document CHEMBL3763124, “N-Benzylbenzamides: A Novel Merged Scaffold for Orally Available Dual Soluble Epoxide Hydrolase/Peroxisome Proliferator-Activated Receptor γ Modulators” (J Med Chem, 2016).

Each structure is given as a SMILES string. Converted amounts (≈) assume the structure as drawn. The source made the active and inactive calls. No cut-off for these calls is given here.

One data set addresses T1, Peroxisome proliferator-activated receptor alpha (Homo sapiens, UniProt Q07869).
T1 sequence (Q07869 whole entry): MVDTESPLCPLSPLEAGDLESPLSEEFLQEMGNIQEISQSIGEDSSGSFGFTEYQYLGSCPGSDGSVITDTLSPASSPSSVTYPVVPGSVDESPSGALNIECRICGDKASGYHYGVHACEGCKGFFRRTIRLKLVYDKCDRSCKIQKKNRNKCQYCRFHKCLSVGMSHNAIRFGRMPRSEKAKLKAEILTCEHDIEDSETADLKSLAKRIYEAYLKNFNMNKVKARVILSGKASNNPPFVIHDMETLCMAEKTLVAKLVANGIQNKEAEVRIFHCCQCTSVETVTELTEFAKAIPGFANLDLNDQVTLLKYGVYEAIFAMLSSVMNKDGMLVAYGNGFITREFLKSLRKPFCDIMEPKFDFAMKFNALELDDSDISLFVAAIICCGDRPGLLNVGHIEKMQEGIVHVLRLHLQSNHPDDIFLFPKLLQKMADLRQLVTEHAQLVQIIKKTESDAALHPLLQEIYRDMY
Conditions: cos-7.
Description: Transactivation of human PPARalpha expressed in African green monkey COS7 cells incubated overnight by dual-glo luciferase reporter gene assay
`CCC(Cc1ccc(C(=O)NCc2ccccc2Cl)cc1)C(=O)O` (stereo not drawn): the EC50 entry is “Not Active”.
Same read-out and setting: under `O=C(NCc1ccccc1C(F)(F)F)c1ccc(C2CC2C(=O)O)cc1` (stereo not drawn) stands “Not Active”.
On the same count and under the same terms, under `CCOC(=O)C(C)Cc1ccc(C(=O)NCc2ccccc2C(F)(F)F)cc1` (stereo not drawn) stands “Not Active”; under `CC/C(=C\c1ccc(C(=O)NCc2ccccc2C(F)(F)F)cc1)C(=O)O`, “Not Active”; under `O=C(NCc1ccccc1C(F)(F)F)c1ccc(CC(C(=O)O)c2ccccc2)cc1` (stereo not drawn), “Not Active”.
Same read-out and setting: for `CCC(Cc1ccc(C(=O)NCc2ccc(F)cc2)cc1)C(=O)O` (stereo not drawn) the value was “Not Active”.
Regarding `CCC(Cc1ccc(C(=O)NCc2ccccc2)cc1)C(=O)O` (stereo not drawn), the EC50 entry is on record as “Not Active”.
Same read-out and setting: under `CCCC(Cc1ccc(C(=O)NCc2ccccc2C(F)(F)F)cc1)C(=O)O` (stereo not drawn) stands “Not Active”; under `CCC(Cc1ccc(C(=O)NCc2ccccc2Br)cc1)C(=O)O` (stereo not drawn), “Not Active”; under `CCOC(=O)C(CC)Cc1cccc(C(=O)NCc2ccccc2C(F)(F)F)c1` (stereo not drawn), “Not Active”.
`CCCC(Cc1ccc(C(=O)NCc2ccccc2C(F)(F)F)cc1)C(=O)OCC` (stereo not drawn): the EC50 entry is reported as “Not Active”.
On the same count and under the same terms, for `CCOC(=O)/C(=C/c1ccc(C(=O)NCc2ccccc2C(F)(F)F)cc1)CC` the value was “Not Active”.
Same read-out and setting: for `CCOC(=O)CCc1ccc(C(=O)NCc2ccccc2C(F)(F)F)cc1` the value was “Not Active”; for `CC(Cc1ccc(C(=O)NCc2ccccc2C(F)(F)F)cc1)C(=O)O` (stereo not drawn), “Not Active”.

The target in another data set is T2, Peroxisome proliferator-activated receptor delta (Homo sapiens) (UniProt Q03181).
T2 sequence (whole entry): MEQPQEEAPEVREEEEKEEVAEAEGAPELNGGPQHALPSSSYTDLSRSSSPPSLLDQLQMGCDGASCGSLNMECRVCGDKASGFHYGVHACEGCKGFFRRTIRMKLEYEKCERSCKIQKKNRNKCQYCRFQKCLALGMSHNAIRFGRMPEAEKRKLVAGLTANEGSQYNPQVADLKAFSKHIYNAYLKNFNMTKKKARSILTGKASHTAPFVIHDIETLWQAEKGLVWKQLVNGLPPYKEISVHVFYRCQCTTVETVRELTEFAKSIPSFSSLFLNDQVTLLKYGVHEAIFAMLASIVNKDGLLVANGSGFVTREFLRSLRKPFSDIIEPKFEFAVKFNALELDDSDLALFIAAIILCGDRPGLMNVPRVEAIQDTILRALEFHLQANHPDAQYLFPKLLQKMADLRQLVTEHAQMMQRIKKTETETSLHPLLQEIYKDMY
As to the kind of experiment: Transactivation of human PPARdelta expressed in African green monkey COS7 cells at 10 uM incubated overnight by dual-glo luciferase reporter assay. It counts as cell-based. As to conditions: COS-7. (In general: In a reporter assay the amount or activity of a reporter protein is the signal.)
In the case of `O=C(NCc1ccccc1C(F)(F)F)c1ccc(C2CC2C(=O)O)cc1` (stereo not drawn), the Emax entry was “inactive”.
Same read-out and setting: for `CCOC(=O)C(C)Cc1ccc(C(=O)NCc2ccccc2C(F)(F)F)cc1` (stereo not drawn) the value was “inactive”.
Same read-out and setting: for `CC/C(=C\c1ccc(C(=O)NCc2ccccc2C(F)(F)F)cc1)C(=O)O` the value was “inactive”; for `O=C(NCc1ccccc1C(F)(F)F)c1ccc(CC(C(=O)O)c2ccccc2)cc1` (stereo not drawn), “inactive”.
Still for that read-out and setting: under `CCCC(Cc1ccc(C(=O)NCc2ccccc2C(F)(F)F)cc1)C(=O)O` (stereo not drawn) stands “inactive”.
As for `CCOC(=O)C(CC)Cc1cccc(C(=O)NCc2ccccc2C(F)(F)F)c1` (stereo not drawn), the Emax result was “inactive”.
As for `CCCC(Cc1ccc(C(=O)NCc2ccccc2C(F)(F)F)cc1)C(=O)OCC` (stereo not drawn), the Emax entry was “inactive”.
Same read-out and setting: under `CCOC(=O)/C(=C/c1ccc(C(=O)NCc2ccccc2C(F)(F)F)cc1)CC` stands “inactive”.
Same read-out and setting: under `CCOC(=O)CCc1ccc(C(=O)NCc2ccccc2C(F)(F)F)cc1` stands “inactive”; under `CC(Cc1ccc(C(=O)NCc2ccccc2C(F)(F)F)cc1)C(=O)O` (stereo not drawn), “inactive”.

System in another data set: not listed separately
Briefly: Solubility of the compound in water by microplate reader analysis.
Conditions: not given
The class given is physicochemical.
For `CCOC(=O)C(C)Cc1ccc(C(=O)NCc2ccccc2C(F)(F)F)cc1` (stereo not drawn), the concentration in solution (solubility) came to 7.5 µM (≈ 2.95 µg/mL).
Consider `O=C(NCc1ccccc1C(F)(F)F)c1ccc(CC(C(=O)O)c2ccccc2)cc1` (stereo not drawn), for which the concentration in solution (solubility) came to 75 µM (≈ 32.1 µg/mL).
For the molecule `CCCC(Cc1ccc(C(=O)NCc2ccccc2C(F)(F)F)cc1)C(=O)O` (stereo not drawn), the concentration in solution (solubility) came to 375 µM (≈ 148 µg/mL).
Same read-out and setting: for `CCC(Cc1ccc(C(=O)NCc2ccccc2Br)cc1)C(=O)O` (stereo not drawn) the value was 375 µM (≈ 146 µg/mL); for `CCCC(Cc1ccc(C(=O)NCc2ccccc2C(F)(F)F)cc1)C(=O)OCC` (stereo not drawn), 3.75 µM (≈ 1.58 µg/mL); for `CCOC(=O)CCc1ccc(C(=O)NCc2ccccc2C(F)(F)F)cc1`, 3.75 µM (≈ 1.42 µg/mL).
Same read-out and setting: under `CC(Cc1ccc(C(=O)NCc2ccccc2C(F)(F)F)cc1)C(=O)O` (stereo not drawn) stands 375 µM (≈ 137 µg/mL).

In the next data set the target is T3, Peroxisome proliferator-activated receptor delta (Homo sapiens, UniProt Q03181).
T3 sequence (Q03181 whole entry): T2 sequence (whole entry)
Briefly: Transactivation of human PPARdelta expressed in African green monkey COS7 cells incubated overnight by dual-glo luciferase reporter gene assay. It counts as cell-based. As to conditions: cos-7.
On to `CCC(Cc1ccc(C(=O)NCc2ccccc2Cl)cc1)C(=O)O` (stereo not drawn), for which the EC50 entry is recorded as “Not Active”.
Still for that read-out and setting: under `O=C(NCc1ccccc1C(F)(F)F)c1ccc(C2CC2C(=O)O)cc1` (stereo not drawn) stands “Not Active”; under `CCOC(=O)C(C)Cc1ccc(C(=O)NCc2ccccc2C(F)(F)F)cc1` (stereo not drawn), “Not Active”; under `CC/C(=C\c1ccc(C(=O)NCc2ccccc2C(F)(F)F)cc1)C(=O)O`, “Not Active”.
For the molecule `O=C(NCc1ccccc1C(F)(F)F)c1ccc(CC(C(=O)O)c2ccccc2)cc1` (stereo not drawn), the EC50 result is reported as “Not Active”.
For the molecule `CCC(Cc1ccc(C(=O)NCc2ccc(F)cc2)cc1)C(=O)O` (stereo not drawn), the EC50 result is “Not Active”.
Same read-out and setting: under `CCC(Cc1ccc(C(=O)NCc2ccccc2)cc1)C(=O)O` (stereo not drawn) stands “Not Active”.
As for `CCCC(Cc1ccc(C(=O)NCc2ccccc2C(F)(F)F)cc1)C(=O)O` (stereo not drawn), the EC50 result was “Not Active”.
Turning to `CCC(Cc1ccc(C(=O)NCc2ccccc2Br)cc1)C(=O)O` (stereo not drawn), the EC50 result was “Not Active”.
As to `CCOC(=O)C(CC)Cc1cccc(C(=O)NCc2ccccc2C(F)(F)F)c1` (stereo not drawn), the EC50 entry is “Not Active”.
Turning to `CCCC(Cc1ccc(C(=O)NCc2ccccc2C(F)(F)F)cc1)C(=O)OCC` (stereo not drawn), the EC50 entry was “Not Active”.
As to `CCOC(=O)/C(=C/c1ccc(C(=O)NCc2ccccc2C(F)(F)F)cc1)CC`, the EC50 result is on record as “Not Active”.
The same measure, in the same setting: under `CCOC(=O)CCc1ccc(C(=O)NCc2ccccc2C(F)(F)F)cc1` stands “Not Active”; under `CC(Cc1ccc(C(=O)NCc2ccccc2C(F)(F)F)cc1)C(=O)O` (stereo not drawn), “Not Active”.

The target of another data set is T4, Bifunctional epoxide hydrolase 2 (Homo sapiens) (UniProt P34913).
T4 sequence (whole entry): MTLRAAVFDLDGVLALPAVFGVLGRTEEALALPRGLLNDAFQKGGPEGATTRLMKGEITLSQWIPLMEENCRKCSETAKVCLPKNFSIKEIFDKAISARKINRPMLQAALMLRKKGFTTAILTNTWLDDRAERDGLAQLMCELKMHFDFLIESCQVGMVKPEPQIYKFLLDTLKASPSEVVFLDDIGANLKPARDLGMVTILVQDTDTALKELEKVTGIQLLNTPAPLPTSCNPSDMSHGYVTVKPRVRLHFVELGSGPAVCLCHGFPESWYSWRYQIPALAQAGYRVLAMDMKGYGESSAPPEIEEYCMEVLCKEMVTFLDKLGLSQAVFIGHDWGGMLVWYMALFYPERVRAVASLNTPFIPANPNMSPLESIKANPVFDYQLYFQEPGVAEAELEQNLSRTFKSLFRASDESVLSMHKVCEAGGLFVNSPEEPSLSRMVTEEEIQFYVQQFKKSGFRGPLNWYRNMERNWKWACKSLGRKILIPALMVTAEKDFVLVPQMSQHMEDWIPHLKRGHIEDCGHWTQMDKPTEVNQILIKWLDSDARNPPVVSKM
As to the kind of experiment: Inhibition of human recombinant sEH using PHOME as substrate at 10 uM preincubated for 30 mins followed by substrate addition measured for 30 mins by fluorescence-based assay.
Conditions: not given
For the molecule `CCC(Cc1ccc(C(=O)NCc2ccccc2Cl)cc1)C(=O)O` (stereo not drawn), the inhibition – broadly, the share of the control response that was lost under treatment – turned out to be 20%.
With `CCC(Cc1ccc(C(=O)NCc2ccc(F)cc2)cc1)C(=O)O` (stereo not drawn), the inhibition worked out at 28%.
On the same count and under the same terms, under `CCC(Cc1ccc(C(=O)NCc2ccccc2)cc1)C(=O)O` (stereo not drawn) stands 4%; under `CCC(Cc1ccc(C(=O)NCc2ccccc2Br)cc1)C(=O)O` (stereo not drawn), 34%.

For another data set, the target named is T5, Peroxisome proliferator-activated receptor alpha (Homo sapiens) (UniProt Q07869).
T5 sequence (whole entry): T1 sequence (Q07869 whole entry)
Briefly: Transactivation of human PPARalpha expressed in African green monkey COS7 cells incubated overnight by dual-glo luciferase reporter assay relative to GW7647. It counts as cell-based. Conditions: COS-7.
Consider `CCC(Cc1ccc(C(=O)NCc2ccccc2Cl)cc1)C(=O)O` (stereo not drawn), for which the Emax entry was “inactive”.
As for `O=C(NCc1ccccc1C(F)(F)F)c1ccc(C2CC2C(=O)O)cc1` (stereo not drawn), the Emax result is “inactive”.
Same read-out and setting: for `CCOC(=O)C(C)Cc1ccc(C(=O)NCc2ccccc2C(F)(F)F)cc1` (stereo not drawn) the value was “inactive”; for `CC/C(=C\c1ccc(C(=O)NCc2ccccc2C(F)(F)F)cc1)C(=O)O`, “inactive”.
Still for that read-out and setting: for `O=C(NCc1ccccc1C(F)(F)F)c1ccc(CC(C(=O)O)c2ccccc2)cc1` (stereo not drawn) the value was “inactive”; for `CCC(Cc1ccc(C(=O)NCc2ccc(F)cc2)cc1)C(=O)O` (stereo not drawn), “inactive”.
The same measure, in the same setting: for `CCC(Cc1ccc(C(=O)NCc2ccccc2)cc1)C(=O)O` (stereo not drawn) the value was “inactive”.
In the case of `CCCC(Cc1ccc(C(=O)NCc2ccccc2C(F)(F)F)cc1)C(=O)O` (stereo not drawn), the Emax entry was “inactive”.
In the case of `CCC(Cc1ccc(C(=O)NCc2ccccc2Br)cc1)C(=O)O` (stereo not drawn), the Emax entry was “inactive”.
The same measure, in the same setting: under `CCOC(=O)C(CC)Cc1cccc(C(=O)NCc2ccccc2C(F)(F)F)c1` (stereo not drawn) stands “inactive”; under `CCCC(Cc1ccc(C(=O)NCc2ccccc2C(F)(F)F)cc1)C(=O)OCC` (stereo not drawn), “inactive”; under `CCOC(=O)/C(=C/c1ccc(C(=O)NCc2ccccc2C(F)(F)F)cc1)CC`, “inactive”.
In the case of `CCOC(=O)CCc1ccc(C(=O)NCc2ccccc2C(F)(F)F)cc1`, the Emax result is “inactive”.
On the same count and under the same terms, under `CC(Cc1ccc(C(=O)NCc2ccccc2C(F)(F)F)cc1)C(=O)O` (stereo not drawn) stands “inactive”.
